{"source": "patent EP3381898A1", "about": "“SYMMETRICAL TRIS-ARYL-AMIDE DERIVATIVES AND THEIR USE AS ANTI-HEPARANASE” (priority 2017, dated 2018)", "key": {"[1]": {"test_system": "genes encoding for proangiogenic factors", "experiment": "Real-Time Quantitative PCR in HT1080 cells, summary statement for all factors", "format": "cell-based, human", "conditions": "2.5 µM, result in words", "protocol": "To evaluate the effect of heparanase inhibitors on the tumor transcription of genes encoding for proangiogenic factors, such as FGF1/2, VEGF, MMP-9, HSPE-1, the relative mRNA levels were analyzed by quantitative Real-Time Quantitative PCR.\nTo perform the assay, HT1080 (human fibrosarcoma) cells were cultured in complete medium containing 10%FCS (fetal calf serum). Cells were plated in 24-well plates and treated at fixed concentration (i.e., highest non-toxic concentration) of test compounds. After 24 h, cells were detached, collected and total RNA extracted by RNeasy Mini Kit (QIAGEN). Following reverse transcription step, FGF1/2, VEGF, MMP-9, HSPE-1 mRNA levels, were quantified by qPCR using the advanced Universal SYBR Green Supermix (Bio Rad) and ABI PRISM 7900HT Thermal Cycler System (Perkin Elmer), according to the manufacturer's instructions. Appropriate no-RT and non-template controls were included in each 96-well PCR reaction, and dissociation analysis was performed at the end of each run to confirm the specificity of the reaction. Relative levels of RNA were calculated using the ddCt method. Standard curve and sample data were run in duplicate. In Table 4 a mean value is reported. […]"}, "[2]": {"target": "T1, heparanase (Homo sapiens, UniProt Q9Y251)", "T1 sequence (Q9Y251 158-543 limits assumed)": "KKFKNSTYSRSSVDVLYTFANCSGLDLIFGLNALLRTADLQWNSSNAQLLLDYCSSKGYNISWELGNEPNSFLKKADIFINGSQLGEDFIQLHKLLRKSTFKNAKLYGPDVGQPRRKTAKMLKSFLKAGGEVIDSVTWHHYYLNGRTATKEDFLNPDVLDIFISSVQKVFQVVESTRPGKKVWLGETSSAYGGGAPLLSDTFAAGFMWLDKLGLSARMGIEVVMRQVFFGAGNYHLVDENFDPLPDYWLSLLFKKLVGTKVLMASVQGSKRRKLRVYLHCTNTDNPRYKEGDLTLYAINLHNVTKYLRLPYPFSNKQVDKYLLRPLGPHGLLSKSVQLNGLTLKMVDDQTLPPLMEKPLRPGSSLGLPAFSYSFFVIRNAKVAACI", "T1 sequence (Q9Y251 36-109 limits assumed)": "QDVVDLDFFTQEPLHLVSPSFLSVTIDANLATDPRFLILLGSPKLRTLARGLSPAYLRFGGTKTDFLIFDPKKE", "experiment": "AGA*IA assay: heparanase-catalyzed fondaparinux cleavage, colorimetric (WST-1)", "format": "biochemical"}, "[3]": {"test_system": "HT1080 (human fibrosarcoma)", "experiment": "Matrigel cell invasion assay", "format": "cell-based", "conditions": "HT-1080, read-out: Invasion Assay Inhibition HT1080", "protocol": "(§1) Heparanase inhibitors were then evaluated for their activity on the invasive potential of HT1080 (human fibrosarcoma), U87MG (human glioblastoma astrocytoma) and U2OS (human osteosarcoma) human cell lines, using the Matrigel cell invasion assay which allows to assess the cell invasion ability of malignant and normal cells.\n(§2) Invasion assay was performed using BioCoat cell culture inserts (BioCoat 8.0µm PET Membrane 24 Well Permeable Supports, Corning). Filters were coated with 100 µl of 300 µg/ml Matrigel dissolved in coating buffer (0.01 M Tris pH 8.0, 0.7% NaCl) (Becton-Dickinson Sciences). DMEM (Dulbecco's Modified Eagle's Medium) containing 5% FBS was added to the lower chambers. Cells were pre-treated with heparanase inhibitors for 24 h, detached and added to the upper chambers in media containing the inhibitors. Cells were allowed to invade for 24 h at 37°C in a CO2 incubator and then unmigrated cells were removed from the upper chamber with a cotton swab. The invading cells were fixed, stained with 0.1% crystal violet for 10 min at room temperature, photographed and counted under inverted microscope.\n(§3) Test compounds were analyzed at fixed concentration (2.5 µM) for several fields, in duplicates. Activity of test compounds was compared to the reference compound. Activity of most interesting compound was confirmed in a second cell invasion assay. Data were expressed as the percent invasion with respect to cell migration through uncoated insert membrane.\n(§4) Table 3. […] In Invasion assay, data were expressed as the percent invasion (range) with respect to cell migration through uncoated insert membrane. In Adhesion assay, data were expressed as the percent of adhesion with respect to the control (100%)."}, "[4]": {"test_system": "U87MG (human glioblastoma astrocytoma)", "experiment": "Matrigel cell invasion assay", "format": "cell-based", "conditions": "Homo sapiens, U-87 MG, read-out: Invasion Assay Inhibition U87MG", "protocol": "as §1, §2, §3, §4"}, "[5]": {"test_system": "U2OS (human osteosarcoma)", "experiment": "Matrigel cell invasion assay", "format": "cell-based", "conditions": "Homo sapiens, read-out: Invasion Assay Inhibition U2OS", "protocol": "as §1, §2, §3, §4"}}, "note": "Read-outs that look alike come from different tables or passages of the source.", "data": [{"smiles": "Cn1cc(NC(=O)c2ccc(Oc3ccc(C(=O)Nc4cc(C(=O)Nc5cccc(CC(=O)N[C@@H](Cc6ccccc6)C(=O)O)c5)n(C)c4)cc3)cc2)cc1C(=O)Nc1cccc(CC(=O)N[C@@H](Cc2ccccc2)C(=O)O)c1", "note": "[Compound 36e, (2S,2'S)-2,2'-((2,2'-(((4,4'-((4,4'-Oxybis(benzoyl))bis(azanediyl))bis(1-methyl-1H-pyrrole-2,2'-carbonyl))bis(azanediyl))bis(3,1-phenylene))bis(acetyl))bis(azanediyl))bis(3-phenylpropanoic acid)]", "values": [{"measurement": "inhibition of genes expression encoding for proangiogenic factors", "setting": "[1]", "value": "significant inhibition"}, {"measurement": "IC50", "setting": "[2]; AGA*IA screening, read-out: anti-heparanase activity", "value": "< 500", "unit": "nM"}, {"measurement": "IC50", "setting": "[2]; Table 1, range activity classes, AGA*IA test on Fondaparinux, read-out: AGAIA assay IC50", "value": "50 to 490", "unit": "nM"}, {"measurement": "IC50", "setting": "[2]; Table 2, classes as in Table 1, read-out: AGA*IA assay", "value": "50 to 490", "unit": "nM"}, {"measurement": "inhibition at 2.5 µM", "setting": "[3]", "value": "50 to 90", "unit": "%"}, {"measurement": "inhibition at 2.5 µM", "setting": "[4]", "value": "50 to 90", "unit": "%"}, {"measurement": "inhibition at 2.5 µM", "setting": "[5]", "value": "< 50", "unit": "%"}]}]}
